According to patent publication US8242146B2, “Combination of a NSAID and a PDE-4 inhibitor” (Nycomed GmbH, priority 2002, dated 2012):

How the values were obtained:
[1] = biological target: partially purified or recombinant PDE4; assay: Inhibition of phosphodiesterase 4 in vitro; assay type: biochemical
[2] = biological target: partially purified or recombinant PDE5 (Homo sapiens, UniProt O76074); assay: Inhibition of phosphodiesterase 5 in vitro; assay type: biochemical
[3] = test system: isolated guinea pig Langendorff hearts; assay: Isolated guinea pig Langendorff heart
[4] = Diclofenac induced blood loss in mice (fecal hemoglobin); assay type: in vivo; conditions: male, NMRI, mouse, feces, oral; mice, 3-100 mg/kg p.o., spectrophotometric determination of fecal hemoglobin; read-out: ED50 of induced gastrointestinal bleeding
Protocol: (§1) Male NMRI mice (Charles River Laboratories, Sulzfeld, Germany) weighting 23-25 g were housed in groups of 5 under standard conditions at a temperature of 22° C.+/−2° C. and a 12 h light-dark cycle. If not otherwise stated animals had free access to tap water and standard food pellets. Diclofenac was administrated at doses from 1-100 mg/kg p.o.; rolipram, roflumliast and RP73401 were given at doses from 1-100 mg/kg p.o. Preventive treatment: Diclofenac was given at time point 0 h. At time points −24, −16, 0 h, +7 h one of the selective PDE4 inhibitors was administered. Curative treatment: Diclofenac was given at time point 0 h. At time points +1 h and +7 h one of the selective PDE4 inhibitors was administered. The drugs used were dissolved in 4% aqueous methyl cellulose. The animals were food reduced 24 h prior diclofenac administration. For each experiment 5 animals were used for one experimental point. Following 24 h administration of drugs animals were weighted and stool was collected quantitatively and homogenized as described below:
(§2) The modified method of Welch (Clin. Chem. 29/12, 2022-2025, 1983) was used. The amount of hemoglobin was determined by the heme catalyzed oxidation of tolidine in the presence of hydrogen peroxide. Feces was homogenized in destined water in a concentration with 1 g feces/6.6 ml H20 with an ultra-turrax (IKA-Werke, Germany). 500 μl aliquots from two different areas of the stool were taken to minimize error due to inhomogenous distribution of blood in the feces and heated 10 min at 95° C. to inactivate peroxidases and than diluted with 500 μl of acetic acid/H20 (30/70 vol/vol). Hemoglobin was extracted in 2.5 ml of acetic acid/H20 (30/70 vol/vol) by the addition of 4.5 ml ethyl acetate. The sample was rigorously shacked and the supernatant was used following a centrifugation step for optical detection of hemoglobin. Tolidine was prepared freshly from a stock solution (0.4 g tolidine in 10 ml ethanol) by mixing equal volumes of stock solution, H20 and acetic acid and equilibrated at room temperature. 20 μl of extracted supernatant was diluted to 100 μl ethyl acetate in a 96er crystal plate and incubated with 50 μl of the working solution. The reaction was initiated by the injection of 25 μl hydrogen peroxide (6%) in a Wallac Victor spectro-photometer (Turku, Finnland). The increase of OD 690 was monitored by a kinetic analysis and expressed as ΔOD690/min.

Male NMRI mice [5] = assay: Indomethacin induced blood loss in mice (fecal hemoglobin); assay type: in vivo; conditions: NSAID 30 mg/kg indomethacin; PDE4 inhibitor 100 mg/kg p.o., curative
Protocol: as §1, with “Diclofenac was administrated at doses from 1-100 mg/kg p.o.; rolipram, roflumliast and RP73401 were given at doses from 1-100 mg/kg p.o. Preventive treatment: Diclofenac was given at time point 0 h.” left out, “Curative treatment: Diclofenac was given at time point 0 h.” left out
The modified method of Welch (Clin. Chem. 29/12, 2022-2025, 1983) was used. The amount of hemoglobin was determined by the heme catalyzed oxidation of tolidine in the presence of hydrogen peroxide. Feces was homogenized in destined water in a concentration with 1 g feces/6.6 ml H20 with an ultra-turrax (IKA-Werke, Germany). […] The increase of OD 690 was monitored by a kinetic analysis and expressed as ΔOD690/min.

Male NMRI mice [6] = assay: Diclofenac induced blood loss in mice (fecal hemoglobin); assay type: in vivo; conditions: for % reduction of ΔOD690/min: NSAID 100 mg/kg diclofenac
Protocol: as §1, §2

| IC50 [1] [µM] | PDE4 activity (in words) [1] | IC50 PDE5 [2] [µM] | PDE5 activity (in words) [2] | SMILES | other results |
| --- | --- | --- | --- | --- | --- |
| 23 | in the μM range | 14 | in the μM range | CS(=O)(=O)Nc1cc2c(cc1Oc1ccc(F)cc1F)C(=O)CC2 [CGP28238, 6-(2,4-difluorophenoxy)-5-methylsulfonylamino-1-indanone] | – |
| > 100 | only minor effects | >100 | only minor effects | O=C(O)Cc1ccccc1Nc1c(Cl)cccc1Cl [Diclofenac, 2-[(2,6-dichlorophenyl)amino]benzeneacetic acid] | ED50 at 24 h [4]: 56 mg/kg |
| ~100 | only minor effects | 62 | only minor effects | COc1ccc2c(c1)c(CC(=O)O)c(C)n2C(=O)c1ccc(Cl)cc1 [Indometacin, 1-(4-chlorobenzoyl)-5-methoxy-2-methyl-1H-indole-3-acetic acid] | – |
| 31 | in the μM range | 24 | in the μM range | CS(=O)(=O)Nc1cc2c(cc1Sc1ccc(F)cc1F)C(=O)CC2 [L-745337, 5-methanesulfonamido-6-(2,4-difluorophenylthio)-1-indanone] | – |
| 58 | in the μM range | 25 | in the μM range | CS(=O)(=O)Nc1ccc([N+](=O)[O-])cc1Oc1ccccc1 [Nimesulide, 4′-nitro-2′-phenoxymethansulfonamide] | – |
| – | – | – | – | COc1ccc(C(=O)Nc2c(Cl)cncc2Cl)cc1OC1CCCC1 [RP73401] | % reduction of ΔOD690/min (Male NMRI mice [5]): 96% |
| – | – | – | – | O=C(Nc1c(Cl)cncc1Cl)c1ccc(OC(F)F)c(OCC2CC2)c1 [Roflumilast, 3-Cyclopropylmethoxy-4-difluoromethoxy-N-(3,5-dichloropyrid-4-yl)-benzamide] | % reduction of ΔOD690/min (Male NMRI mice [6]; PDE4 inhibitor 3 mg/kg p.o., curative): 95%; % reduction of ΔOD690/min (Male NMRI mice [6]; PDE4 inhibitor 10 mg/kg p.o., preventive): 95% |
| – | – | – | – | COc1ccc(C2CNC(=O)C2)cc1OC1CCCC1 (centres unmarked) [Rolipram] | % reduction of ΔOD690/min (Male NMRI mice [6]; PDE4 inhibitor 10 mg/kg p.o., curative): 82%; % reduction of ΔOD690/min (Male NMRI mice [6]; PDE4 inhibitor 30 mg/kg p.o., preventive): 90%; % reduction of ΔOD690/min (Male NMRI mice [5]): 65% |
| – | – | – | – | CCCc1nn(C)c2c(=O)[nH]c(-c3cc(S(=O)(=O)N4CCN(C)CC4)ccc3OCC)nc12 [sildenafil] | protection from NSAID-induced blood loss (Male NMRI mice [6]; diclofenac 10-100 mg/kg p.o. t=0 h, sildenafil 3-100 mg/kg p.o. t=-48 h to +7 h): no protection |

| SMILES | IC50 [1] [µM] | PDE4 activity (in words) [1] | IC50 PDE5 [2] [µM] | PDE5 activity (in words) [2] | other results |
| --- | --- | --- | --- | --- | --- |
| CC(=O)Oc1ccccc1C(=O)O [ASS, 2-(acetyloxy)benzoic acid] | > 100 | only minor effects | >100 | only minor effects | – |
| Cc1ccc(-c2cc(C(F)(F)F)nn2-c2ccc(S(N)(=O)=O)cc2)cc1 [Celecoxib, 4-[5-(4-methylphenyl)-3-(tri-fluoromethyl)-1H-pyrazol-1-yl]benzenesulfonamide] | 6 | in the μM range | – | in the μM range | heart rate [3]: no effect; left ventricular pressure [3]: no effect; coronary heart flow ([3]; doses consistent with inhibitory potency on PDE4 and 5): selectively increased |
